From article PMC11429909, “Protein Structure Inspired Discovery of a Novel Inducer of Anoikis in Human Melanoma” (Cancers, 2024)
“Also recorded” adds a separate entry of the source.

System: cleaved caspase 3
Assay: Western blot for cleaved caspase 3, SK-MEL-5
Type: cell-based, human
Details: up to 20 µM, three days
Protocol: After treatment of M14 and SK-MEL-5 cells with different concentrations of Dxr2-017 or vehicle for 3 or 8 days, as denoted, cell images were captured at 20X in a transmitted light channel using the EVOS™ M5000 Imaging System (Invitrogen (Waltham, MA, USA)). Western blots were performed as previously described by us. Briefly, cells were collected and lysed using RIPA lysis buffer (25 mM Tris-HCl pH 7.6, 150 mM NaCl, 1% NP-40, 1% sodium deoxycholate, and 0.1% SDS; Thermo Scientific^TM (Waltham, MA, USA), #89900), supplemented with protease and phosphatase inhibitor cocktail (Thermo Scientific^TM, #78442) and 1 mM of PMSF. Resultant Western blots were probed using antibodies against cleaved caspase 3 (Cell Signaling Technology (Danvers, MA, USA), #9664), pan-cadherin (Cell Signaling Technology, #4068), and β-actin (Santa Cruz (Santa Cruz, CA, USA), #sc-47778).
We then assessed whether Dxr2-017 induced apoptosis. We treated M14 and SK-MEL-5 cells with Dxr2-017 for three days at concentrations of up 10 and 20 µM, respectively, and measured cleaved caspase 3 using Western blot. […] In this assay, cells were grown in six-well plates and washed prior to lysis, and thus only adherent cells remained. […] Adherent cells are spread out and fusiform shaped, while detached/floating cells are round, as previously reported by us. […]

Structure (SMILES): c1ccc2sc(-c3ccc(CNc4ccc5nnnn5n4)o3)nc2c1 [Dxr2-017]
- cleaved caspase 3, adherent and floating cells combined: clear formation was observed
- cleaved caspase 3, adherent cells only: did not see any induction of cleaved caspase 3; also recorded: no formation of cleaved caspase 3
